Test results as given in paper PMC8284461, “Piperidine-4-Carboxamides Target DNA Gyrase in Mycobacterium abscessus” (Antimicrobial Agents and Chemotherapy, 2021).
In brackets after ≈: the same amount, converted by molar mass.

What was measured:
[1] = system: M. abscessus subsp. abscessus Bamboo 844^r-3 (GyrB S473W); assay: MIC, resistant mutant; format: cell-based, Mycobacterium abscessus; conditions: Mycobacteroides abscessus
[2] = system: M. abscessus subsp. abscessus Bamboo; design: method as in PMID 19171799; conditions: erm(41) C28; cited from earlier work
[3] = system: M. abscessus subsp. abscessus M337; design: method as in PMID 19171799; conditions: abscessus M337, erm(41) T28; cited from earlier work
[4] = system: M. abscessus subsp. abscessus M404; design: method as in PMID 19171799; conditions: abscessus M404, erm(41) C28; cited from earlier work
[5] = system: M. abscessus subsp. abscessus M9; design: method as in PMID 19171799; conditions: abscessus M9, erm(41) T28; cited from earlier work
[6] = system: M. abscessus subsp. abscessus ATCC 19977 MXF^r-3 (GyrA D96G); assay: MIC, resistant mutant; format: cell-based, Mycobacterium abscessus; conditions: Mycobacteroides abscessus, ATCC19977
[7] = system: M. abscessus subsp. bolletii M232; design: method as in PMID 19171799; conditions: bolletii M232, erm(41) T28; cited from earlier work
[8] = system: M. abscessus subsp. abscessus Bamboo; assay: MIC, broth microdilution; format: cell-based, Mycobacterium abscessus; conditions: abscessus Bamboo wild type, 90% growth inhibition, 3 days
Protocol: (§1) MIC was determined using the broth microdilution method in 96-well plates as described previously ([47]). Briefly, a 10-point 2-fold serial dilution of compounds was performed in 96-well plates (Costar 3370; Corning, USA) starting at twice the desired highest concentration. […] One hundred microliters of the bacterial suspension was seeded onto the 96-well plates containing 100 μl of the serially diluted compounds to give a final volume of 200 μl in each well with the final OD600 of 0.005. The plates were sealed with parafilm, placed onto wet paper towels in a lock-lock box and incubated for 3 days at 37°C with orbital shaking at 90 rpm. […] Absorbance values at day 3 were subtracted from the day 0 readout. Percent growth inhibition was calculated by dividing the absolute absorbance value of treated cells with untreated control and multiplying by 100. CLR was included in all MIC experiments as a positive control to monitor assay reproducibility. MIC was defined as 90% of growth inhibition relative to untreated controls.

[9] = system: M. abscessus subsp. massiliense M111; assay: MIC, broth microdilution; format: cell-based, Mycobacterium abscessus; conditions: Mycobacteroides abscessus, 72 h, 90% growth inhibition, 3 days
Protocol: as §1

[10] = system: M. abscessus subsp. abscessus M199; assay: MIC, broth microdilution; format: cell-based, Mycobacterium abscessus; conditions: Mycobacteroides abscessus, 72 h, 90% growth inhibition, 3 days
Protocol: as §1

[11] = system: M. abscessus subsp. bolletii M506; assay: MIC, broth microdilution; format: cell-based, Mycobacterium abscessus; conditions: Mycobacteroides abscessus, 72 h, 90% growth inhibition, 3 days
Protocol: as §1

[12] = system: M. abscessus subsp. abscessus ATCC 19977; assay: MIC, broth microdilution; format: cell-based, Mycobacterium abscessus; conditions: abscessus ATCC 19977 wild type, 90% growth inhibition, 3 days
Protocol: as §1

[13] = system: M. abscessus subsp. abscessus M404; assay: MIC, broth microdilution; format: cell-based, Mycobacterium abscessus; conditions: Mycobacteroides abscessus, 72 h, 90% growth inhibition, 3 days
Protocol: as §1

[14] = system: M. abscessus subsp. abscessus K21; assay: MIC, broth microdilution; format: cell-based, Mycobacterium abscessus; conditions: Mycobacteroides abscessus, 72 h, 90% growth inhibition, 3 days
Protocol: as §1

[15] = system: M. abscessus subsp. bolletii M232; assay: MIC, broth microdilution; format: cell-based, Mycobacterium abscessus; conditions: Mycobacteroides abscessus, 72 h, 90% growth inhibition, 3 days
Protocol: as §1

[16] = system: M. abscessus subsp. massiliense CCUG 48898T; assay: MIC, broth microdilution; format: cell-based, Mycobacterium abscessus; conditions: Mycobacteroides abscessus, 72 h, 90% growth inhibition, 3 days
Protocol: as §1

[17] = system: M. abscessus subsp. abscessus M337; assay: MIC, broth microdilution; format: cell-based, Mycobacterium abscessus; conditions: Mycobacteroides abscessus, 72 h, 90% growth inhibition, 3 days
Protocol: as §1

[18] = system: M. abscessus subsp. bolletii CCUG 50184T; assay: MIC, broth microdilution; format: cell-based, Mycobacterium abscessus; conditions: Mycobacteroides abscessus, 72 h, 90% growth inhibition, 3 days
Protocol: as §1

[19] = system: M. abscessus subsp. abscessus M421; assay: MIC, broth microdilution; format: cell-based, Mycobacterium abscessus; conditions: Mycobacteroides abscessus, 72 h, 90% growth inhibition, 3 days
Protocol: as §1

[20] = system: M. abscessus subsp. abscessus M9; assay: MIC, broth microdilution; format: cell-based, Mycobacterium abscessus; conditions: Mycobacteroides abscessus, 72 h, 90% growth inhibition, 3 days
Protocol: as §1

[21] = system: M. abscessus subsp. massiliense M111; design: method as in PMID 19171799; conditions: massiliense M111, erm(41) deletion; cited from earlier work
[22] = system: M. abscessus subsp. abscessus ATCC 19977 844-TMF^r-4 (GyrB M474I); assay: MIC, resistant mutant; format: cell-based, Mycobacterium abscessus; conditions: Mycobacteroides abscessus, ATCC19977
[23] = biological target: recombinant M. abscessus wild-type DNA gyrase (Mycobacteroides abscessus, UniProt B1ME45+B1ME58); assay: biochemical; design: species or system Mycobacterium abscessus; conditions: wild-type DNA gyrase
[24] = system: M. abscessus subsp. bolletii CCUG 50184T; design: method as in PMID 19171799; conditions: erm(41) T28; cited from earlier work
[25] = system: M. abscessus subsp. massiliense CCUG 48898T; design: method as in PMID 19171799; conditions: erm(41) deletion; cited from earlier work
[26] = system: M. abscessus subsp. abscessus ATCC 19977 MXF^r-1 (GyrA D96Y); assay: MIC, resistant mutant; format: cell-based, Mycobacterium abscessus; conditions: Mycobacteroides abscessus, ATCC19977
[27] = system: M. abscessus subsp. abscessus K21; design: method as in PMID 19171799; conditions: abscessus K21, erm(41) C28; cited from earlier work
[28] = system: M. abscessus subsp. abscessus M199; design: method as in PMID 19171799; conditions: abscessus M199, erm(41) T28; cited from earlier work
[29] = system: M. abscessus subsp. bolletii M506; design: method as in PMID 19171799; conditions: bolletii M506, erm(41) C28; cited from earlier work
[30] = system: M. abscessus subsp. abscessus M421; design: method as in PMID 19171799; conditions: abscessus M421, erm(41) T28; cited from earlier work
[31] = system: M. abscessus subsp. abscessus ATCC 19977 MXF^r-2 (GyrA D96N); assay: MIC, resistant mutant; format: cell-based, Mycobacterium abscessus; conditions: Mycobacteroides abscessus, ATCC19977
[32] = system: M. abscessus subsp. abscessus ATCC 19977; design: method as in PMID 19171799; conditions: abscessus ATCC 19977, erm(41) T28; inducible resistance by sequevar; cited from earlier work
[33] = system: M. abscessus subsp. abscessus Bamboo 844^r-2 (GyrA D91N); assay: MIC, resistant mutant; format: cell-based, Mycobacterium abscessus; conditions: Mycobacteroides abscessus
[34] = system: M. abscessus subsp. abscessus ATCC 19977; assay: Time-concentration kill assay, planktonic cultures; format: cell-based, Mycobacterium abscessus; conditions: 1×, 4×, 8× MIC; CFU after 2 and 3 days
Protocol: At 0, 2, and 3 days, tubes were vortexed, and 20 μl of the cultures was transferred to round-bottom 96-well plates containing 180 μl of phosphate-buffered saline (PBS) (10010023; Thermo Fisher, USA) with 0.025% Tween 80 (PBS/Tween 80) for 10-fold serial dilution. To prevent compound carryover effects, we plated out serially diluted samples onto 7H10 agar supplemented with 0.4% activated charcoal (C9154; Sigma-Aldrich, USA) for all time points as described ([48]). CFU were enumerated after 4 days of incubation at 37°C.

[35] = system: M. abscessus subsp. abscessus ATCC 19977 biofilm; assay: Antibiofilm activity, MBEC biofilm assay; format: cell-based, Mycobacterium abscessus; conditions: 1×, 4×, 8× MIC; surface-attached CFU after 2 and 3 days
Protocol: The antibiofilm activity of 844 and 844-TMF was determined employing the MBEC 96-well Biofilm assay kit (19111; Innovotech, Edmonton, AB, Canada) as described previously ([15]) with minor modifications. Briefly, exponentially growing M. abscessus subsp. abscessus ATCC 19977 cultures were spun down at 3,200 × g for 10 min and washed with 7H9 broth without Tween 80 (‘7H9’). Bacteria were resuspended in ‘7H9’ to an OD600 of 0.0125, and 150 μl was dispensed into the wells of Innovotech 96-well plates. Pegs (protruding from the specialized lids of the Innovotech multiwell plates) were inserted into the bacterial suspensions in the wells, and the cultures were grown 24 h with shaking at 110 rpm at 37°C to allow attachment and growth of the bacteria on the surface of the pegs. […] Biofilm growth on the pegs was measured by CFU determination. The pegs were washed in 200 μl ‘7H9’ medium, removed, and placed in 1.7-ml microcentrifuge tubes (87003-294; VWR, Radnor, PA, USA) containing 500 μl PBS/Tween 80 (0.025%). The tubes were vortexed at 2,000 rpm for 90 s to detach and suspend the bacteria from the pegs before samples were serially diluted and plated onto 7H10 agar supplemented with 0.4% activated charcoal to determine CFU/peg.

[36] = system: M. abscessus complex strains; assay: MIC across reference strains and clinical isolates; format: cell-based, Mycobacterium abscessus; conditions: Mycobacteroides abscessus; reference strains and clinical isolates of Table 1; read-out: MICs ranging across the M. abscessus complex strains
Protocol: as §1

[37] = system: M. abscessus subsp. abscessus Bamboo; assay: Selection and characterization of spontaneous resistant mutants; format: cell-based, Mycobacterium abscessus; conditions: agar with 8× MIC
[38] = biological target: GyrA D91N mutant recombinant M. abscessus DNA gyrase (Mycobacteroides abscessus, UniProt B1ME45+B1ME58, D91N); format: biochemical, Mycobacterium abscessus; conditions: GyrA D91N mutant DNA gyrase, up to 50 μM
[39] = Mycobacteroides abscessus, 72 h
[40] = Mycobacteroides abscessus, ATCC19977, 72 h

Chain of recombinant M. abscessus wild-type DNA gyrase (B1ME58 entry or part of it): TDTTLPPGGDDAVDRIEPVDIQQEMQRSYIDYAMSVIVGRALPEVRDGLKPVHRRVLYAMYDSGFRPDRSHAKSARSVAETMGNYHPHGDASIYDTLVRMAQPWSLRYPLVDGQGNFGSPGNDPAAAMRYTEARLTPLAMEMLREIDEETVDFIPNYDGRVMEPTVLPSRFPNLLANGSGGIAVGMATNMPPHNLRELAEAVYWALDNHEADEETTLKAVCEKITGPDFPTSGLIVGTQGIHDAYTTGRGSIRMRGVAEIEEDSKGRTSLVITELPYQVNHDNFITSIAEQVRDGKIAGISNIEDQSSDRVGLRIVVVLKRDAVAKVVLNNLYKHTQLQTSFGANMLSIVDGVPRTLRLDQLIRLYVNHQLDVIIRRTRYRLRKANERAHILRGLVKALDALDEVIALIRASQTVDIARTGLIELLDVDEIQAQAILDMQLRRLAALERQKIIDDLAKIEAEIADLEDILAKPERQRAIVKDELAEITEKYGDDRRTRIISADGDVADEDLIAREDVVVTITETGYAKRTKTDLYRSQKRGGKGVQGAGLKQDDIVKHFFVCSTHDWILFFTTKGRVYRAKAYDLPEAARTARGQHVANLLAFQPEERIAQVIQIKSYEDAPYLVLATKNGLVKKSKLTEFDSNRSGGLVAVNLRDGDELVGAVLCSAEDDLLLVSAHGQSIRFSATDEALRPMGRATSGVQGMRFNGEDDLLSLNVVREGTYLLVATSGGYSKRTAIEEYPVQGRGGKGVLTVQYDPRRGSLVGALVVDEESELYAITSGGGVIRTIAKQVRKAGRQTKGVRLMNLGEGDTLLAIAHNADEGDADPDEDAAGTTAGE
Chain of recombinant M. abscessus wild-type DNA gyrase (B1ME45 entry or part of it): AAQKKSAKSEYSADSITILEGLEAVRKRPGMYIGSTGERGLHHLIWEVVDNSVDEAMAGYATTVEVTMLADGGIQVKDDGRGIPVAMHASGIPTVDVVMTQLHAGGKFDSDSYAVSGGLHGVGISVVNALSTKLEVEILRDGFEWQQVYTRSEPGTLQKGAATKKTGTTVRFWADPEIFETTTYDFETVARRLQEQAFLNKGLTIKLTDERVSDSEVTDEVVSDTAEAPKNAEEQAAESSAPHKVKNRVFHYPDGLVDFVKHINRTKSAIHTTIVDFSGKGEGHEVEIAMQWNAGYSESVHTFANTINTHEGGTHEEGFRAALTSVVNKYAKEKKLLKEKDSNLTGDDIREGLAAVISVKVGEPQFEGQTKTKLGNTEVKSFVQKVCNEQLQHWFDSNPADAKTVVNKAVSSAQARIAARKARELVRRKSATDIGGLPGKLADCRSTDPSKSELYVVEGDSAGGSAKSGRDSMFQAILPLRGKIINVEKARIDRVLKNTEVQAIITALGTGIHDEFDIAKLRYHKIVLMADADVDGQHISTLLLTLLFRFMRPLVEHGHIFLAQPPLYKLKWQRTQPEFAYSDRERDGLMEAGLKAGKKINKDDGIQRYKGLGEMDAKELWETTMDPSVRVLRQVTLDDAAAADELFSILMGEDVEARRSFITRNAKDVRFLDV
Chain of GyrA D91N mutant recombinant M. abscessus DNA gyrase (B1ME58 2-839, stated change not applied): as the sequence (B1ME58 entry or part of it) above
Chain of GyrA D91N mutant recombinant M. abscessus DNA gyrase (B1ME45 2-675, stated change not applied): as the sequence (B1ME45 entry or part of it) above

Row | SMILES | MIC [1] [µM] | MIC [6] [µM] | MIC [8, 39] [µM] | MIC [9] [µM] | MIC [10] [µM] | MIC [11] [µM] | MIC [12, 40] [µM] | MIC [12] [µM] | MIC [13] [µM] | MIC [14] [µM] | MIC [15] [µM] | MIC [16] [µM] | MIC [17] [µM] | MIC [18] [µM] | MIC [19] [µM] | MIC [20] [µM] | MIC [22] [µM] | MIC [26] [µM] | MIC [31] [µM] | MIC [33] [µM] | other results
1 | CC[C@H]1OC(=O)[C@H](C)[C@@H](O[C@H]2C[C@@](C)(OC)[C@@H](O)[C@H](C)O2)[C@H](C)[C@@H](O[C@@H]2O[C@H](C)C[C@H](N(C)C)[C@H]2O)[C@](C)(OC)C[C@@H](C)C(=O)[C@H](C)[C@@H](O)[C@]1(C)O [CLR, clarithromycin] | 0.4 (≈ 0.299 µg/mL) | 1 (≈ 0.748 µg/mL) | 0.4 (≈ 0.299 µg/mL) | 0.2 (≈ 0.15 µg/mL) | 3.2 (≈ 2.39 µg/mL) | 0.8 (≈ 0.598 µg/mL) | 2 (≈ 1.5 µg/mL) | 2 (≈ 1.5 µg/mL) | 0.8 (≈ 0.598 µg/mL) | 0.6 (≈ 0.449 µg/mL) | 3.2 (≈ 2.39 µg/mL) | 0.2 (≈ 0.15 µg/mL) | 3.2 (≈ 2.39 µg/mL) | 1.2 (≈ 0.898 µg/mL) | 3.2 (≈ 2.39 µg/mL) | 3.2 (≈ 2.39 µg/mL) | 2 (≈ 1.5 µg/mL) | 2 (≈ 1.5 µg/mL) | 1 (≈ 0.748 µg/mL) | 0.3 (≈ 0.224 µg/mL) | CLR susceptibility [2]: Sensitive; CLR susceptibility [3]: Resistant; CLR susceptibility [4]: Sensitive; CLR susceptibility [5]: Resistant; CLR susceptibility [7]: Resistant; CLR susceptibility [21]: Sensitive; effect on supercoiling activity ([23]; up to 50 μM): did not affect the activity of the enzyme; CLR susceptibility [24]: Resistant; CLR susceptibility [25]: Sensitive; CLR susceptibility [27]: Sensitive; CLR susceptibility [28]: Resistant; CLR susceptibility [29]: Sensitive; CLR susceptibility [30]: Resistant; CLR susceptibility [32]: Resistant
2 | COc1ccc2nccc(NC(=O)C3CCN(CCc4ccc(Cl)cc4)CC3)c2n1 [compound 844] | 90 (≈ 38.2 µg/mL) | 15 (≈ 6.37 µg/mL) | 12 (≈ 5.1 µg/mL) | 12.5 (≈ 5.31 µg/mL) | 6.3 (≈ 2.68 µg/mL) | 6.3 (≈ 2.68 µg/mL) | 8 (≈ 3.4 µg/mL) | 8 (≈ 3.4 µg/mL) | 6.3 (≈ 2.68 µg/mL) | 14 (≈ 5.95 µg/mL) | 6.3 (≈ 2.68 µg/mL) | 14 (≈ 5.95 µg/mL) | 6.3 (≈ 2.68 µg/mL) | 14 (≈ 5.95 µg/mL) | 6.3 (≈ 2.68 µg/mL) | 6.3 (≈ 2.68 µg/mL) | 40 (≈ 17 µg/mL) | 40 (≈ 17 µg/mL) | 15 (≈ 6.37 µg/mL) | > 100 | bactericidal activity in planktonic cultures [34]: bactericidal; bactericidal activity against M. abscessus grown as biofilm [35]: bactericidal; MIC [8]: 12 µM (≈ 5.1 µg/mL); MIC [36]: 6 to 14 µM (≈ 2.55 to 5.95 µg/mL); IC50 ([23]; relaxed pBR322 substrate, read-out: IC50, supercoiling activity): 4.6 µM; frequency of spontaneous resistance [37]: 10^−8 /CFU; effect on supercoiling activity [38]: No inhibition
